Test results as given in ChEMBL document CHEMBL5390301, “Fragment-Based Screening Identifies New Quinazolinone-Based Inositol Hexakisphosphate Kinase (IP6K) Inhibitors” (ACS Med Chem Lett, 2023).

Molecular target: Inositol hexakisphosphate kinase 1 (Homo sapiens, UniProt Q92551)
Experiment: Inhibition of IP6K1 (unknown origin) incubated for 30 min in presence of ATP by ADPGlo reagent based assay

Inositol hexakisphosphate kinase 1, sequence (Q92551 whole entry): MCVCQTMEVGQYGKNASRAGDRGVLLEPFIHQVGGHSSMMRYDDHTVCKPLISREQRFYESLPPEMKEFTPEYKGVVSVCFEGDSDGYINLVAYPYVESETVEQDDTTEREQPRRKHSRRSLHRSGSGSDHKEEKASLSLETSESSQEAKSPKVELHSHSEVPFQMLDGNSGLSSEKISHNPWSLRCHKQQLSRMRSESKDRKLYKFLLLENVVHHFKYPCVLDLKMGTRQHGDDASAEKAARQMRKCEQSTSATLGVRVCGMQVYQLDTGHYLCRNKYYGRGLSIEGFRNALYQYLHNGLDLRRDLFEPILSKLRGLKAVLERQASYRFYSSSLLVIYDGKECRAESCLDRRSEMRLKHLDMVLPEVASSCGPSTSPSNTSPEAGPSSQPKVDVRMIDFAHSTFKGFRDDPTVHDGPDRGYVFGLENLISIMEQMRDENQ

`O=c1[nH]cnc2ccc(N3CCCC3)c(Br)c12` and `O=c1[nH]cnc2ccc(N3CCCC3)c(Cl)c12` cannot be ordered by IC50: greater than 200 µM for the first, greater than 200 µM for the second.

Compared with `O=S1(=O)NC=Nc2ccc(N3CCCC3)cc21`, `O=c1[nH]cnc2ccc(N3CCCCC3)cc12` is lower in IC50: greater than 200 µM for the first, 25.9 µM for the second. The second is the more potent here.

Compared with `O=c1[nH]cnc2ccc(NC3CCCCC3)cc12`, `CN(C)C1CCN(c2ccc3nc[nH]c(=O)c3c2)CC1` is higher in IC50: 71.5 µM for the first, greater than 200 µM for the second.

Going from `O=c1[nH]cnc2c(Cl)cc(N3CCc4ccccc4CC3)cc12` to `O=c1[nH]cnc2ccc(N3CCc4ccccc4C3)cc12`, the IC50 falls from greater than 200 µM to 1.12 µM.

Going from `O=c1[nH]cnc2ccc(/C=C/c3ccncc3)cc12` to `O=c1[nH]cnc2ccc(/C=C/c3ccccn3)cc12`, the IC50 falls from 127 µM to 32.4 µM (3.9-fold). The second is the more potent here.

Going from `O=c1[nH]cnc2ccc(OCc3ccccc3)cc12` to `O=c1[nH]cnc2ccc(NCc3ccccc3)cc12`, the IC50 rises from 13.3 µM to 30.7 µM (2.3-fold). The first is the more potent here.

`Cn1cnc2ccc(/C=C/c3ccccc3)cc2c1=O` and `Cc1nc2ccc(/C=C/c3ccccc3)cc2c(=O)[nH]1` are within 1.5-fold of each other in IC50: 112 µM for the first, 85.3 µM for the second.

First: O=c1[nH]cnc2ccc(N3CCC(c4ccccc4)CC3)cc12
Second: O=c1[nH]cnc2ccc(N3CCCc4ccccc4C3)cc12
The IC50 of the first is 30-fold higher: 15.3 µM for the first, 0.51 µM for the second.

Compared with `CC1(C)C[N+](c2ccc3nc[nH]c(=O)c3c2)=Cc2ccccc21`, `O=c1[nH]cnc2ccc([N+]3=Cc4ccccc4CC3)cc12` is 4.8-fold higher in IC50: 0.595 µM for the first, 2.88 µM for the second. The first is the more potent here.

First: O=c1[nH]cnc2ncc(/C=C/c3ccccc3)cc12
Second: O=c1[nH]cnc2c(Cl)cc(/C=C/c3ccccc3)cc12
The IC50 of the first is lower: 118 µM for the first, greater than 200 µM for the second. The first is the more potent here.

Going from `Nc1cc2nc[nH]c(=O)c2cc1N1Cc2ccccc2C1` to `O=c1[nH]cnc2cc([N+](=O)[O-])c(N3Cc4ccccc4C3)cc12`, the IC50 rises from 0.757 µM to 2.41 µM (3.2-fold).

First: O=c1[nH]cnc2c(F)cc(N3CCCC3)cc12
Second: O=c1[nH]cnc2c(Cl)cc(N3CCCC3)cc12
The IC50 of the first is 3-fold higher: 6.84 µM for the first, 2.25 µM for the second. The second is the more potent here.

First: Nc1ccc(N2CCCC2)cc1C(=O)O
Second: Nc1nc2ccc(N3CCCC3)cc2c(=O)[nH]1
The IC50 of the first is lower: 22.7 µM for the first, greater than 200 µM for the second.

`O=c1[nH]c(=O)c2cc(N3CCCC3)ccc2[nH]1` and `Cc1nc2ccc(N3CCCC3)cc2c(=O)[nH]1` cannot be ordered by IC50: greater than 200 µM for the first, greater than 200 µM for the second.

`c1cc2c(cc1N1CCCC1)CNCC2` and `O=C1NCCc2ccc(N3CCCC3)cc21` cannot be ordered by IC50: greater than 200 µM for the first, greater than 200 µM for the second.

Going from `O=C1CCNc2ccc(/C=C/c3ccccc3)cc21` to `O=C(O)c1cc(/C=C/c2ccccc2)cc2c(=O)[nH]cnc12`, the IC50 falls from greater than 200 µM to 67.2 µM.

Compared with `O=C1CCCc2ccc(N3CCCC3)cc21`, `Nc1ncnc2ccc(N3CCCC3)cc12` is lower in IC50: greater than 200 µM for the first, 48.9 µM for the second. The second is the more potent here.

Going from `CN(Cc1ccccc1)c1ccc2nc[nH]c(=O)c2c1` to `CN(C)c1ccc2nc[nH]c(=O)c2c1`, the IC50 rises from 15.4 µM to 75.4 µM (4.9-fold).

First: Nc1cc2nc[nH]c(=O)c2cc1N1CCCC1
Second: O=c1[nH]cnc2cc(F)c(N3CCCC3)cc12
The IC50 of the first is 2.8-fold higher: 34.3 µM for the first, 12.2 µM for the second.

First: CN(C)c1cccc(-c2cc(O)c3nc[nH]c(=O)c3c2)c1
Second: Cc1cc(F)ccc1-c1cc(O)c2nc[nH]c(=O)c2c1
The IC50 of the first is lower: 37.4 µM for the first, greater than 200 µM for the second. The first is the more potent here.

Going from `O=c1[nH]cnc2ccc(N3Cc4cccc(F)c4C3)cc12` to `CN1CCN(c2ccc3nc[nH]c(=O)c3c2)CC1`, the IC50 rises from 1.07 µM to greater than 200 µM. The first is the more potent here.

`O=c1[nH]cnc2ccc([N+]3=Cc4ccccc4CCC3)cc12` and `O=c1[nH]cnc2cc(N3CCCC3)c(Br)cc12` are within 1.5-fold of each other in IC50: 45.2 µM for the first, 47.6 µM for the second.

Compared with `O=c1[nH]cnc2ccc(N3CCCC3)nc12`, `O=c1[nH]cnc2cnc(N3CCCC3)cc12` is lower in IC50: greater than 200 µM for the first, 94.4 µM for the second.

First: Nc1cc(N2CCCC2)cc2c(=O)[nH]cnc12
Second: O=c1[nH]cnc2c([N+](=O)[O-])cc(N3CCCC3)cc12
The IC50 of the first is lower: 189 µM for the first, greater than 200 µM for the second.

Molecular target: T1, Inositol hexakisphosphate kinase 2 (Homo sapiens, UniProt Q9UHH9)
T1 sequence (Q9UHH9 whole entry): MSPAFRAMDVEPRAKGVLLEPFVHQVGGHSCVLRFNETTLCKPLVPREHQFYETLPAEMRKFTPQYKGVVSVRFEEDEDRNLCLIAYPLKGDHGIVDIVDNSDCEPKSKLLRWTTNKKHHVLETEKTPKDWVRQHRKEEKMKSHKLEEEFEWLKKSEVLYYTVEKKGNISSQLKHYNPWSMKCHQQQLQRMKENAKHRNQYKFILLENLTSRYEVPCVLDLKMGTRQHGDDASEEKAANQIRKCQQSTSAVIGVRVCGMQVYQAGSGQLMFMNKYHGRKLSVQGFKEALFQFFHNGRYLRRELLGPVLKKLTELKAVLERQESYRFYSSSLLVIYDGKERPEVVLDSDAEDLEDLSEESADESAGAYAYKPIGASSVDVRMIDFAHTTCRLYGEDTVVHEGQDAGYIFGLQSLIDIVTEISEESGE
Experiment: Inhibition of IP6K2 (unknown origin) incubated for 2 hrs in presence of ATP by ADPGlo reagent based assay

First: O=c1[nH]cnc2ccc(C#Cc3ccccc3)cc12
Second: O=c1[nH]cnc2ccc(CCc3ccccc3)cc12
The IC50 of the first is 1.9-fold higher: 96.3 µM for the first, 51.5 µM for the second.

Compared with `O=c1[nH]cnc2ccc(N3CC[C@H]4CCCC[C@@H]4C3)cc12`, `O=c1[nH]cnc2ccc(N3C[C@H]4CCCC[C@H]4C3)cc12` is higher in IC50: 91.9 µM for the first, greater than 200 µM for the second.

`O=c1[nH]cnc2ccc(C3=Cc4ccccc4C3)cc12` and `O=c1[nH]cnc2ccc(N3CCc4ccccc4CC3)cc12` cannot be ordered by IC50: greater than 200 µM for the first, greater than 200 µM for the second.

Going from `O=c1[nH]cnc2ccc(N3CCCC3)cc12` to `N#Cc1cc(N2CCCC2)cc2c(=O)[nH]cnc12`, the IC50 falls from greater than 200 µM to 28.8 µM.

Compared with `O=c1[nH]cnc2ccc(/C=C/c3ccc(F)cc3)cc12`, `O=c1[nH]cnc2ccc(/C=C/c3ccccc3)cc12` is lower in IC50: greater than 200 µM for the first, 193 µM for the second. The second is the more potent here.

Test system: not listed separately
Experiment: Selectivity index, ratio of IC50 for IP6K2 (unknown origin) to ratio of IC50 for IP6K3 (unknown origin)

`O=C(O)c1cccc(-c2oc3cc(O)c(O)cc3c(=O)c2O)c1` gave a Ratio IC50 of 5.
